Experimental findings from patent publication US8853418B2, “Cyclopentylpyrazoles as N-type calcium channel blockers” (Janssen Pharmaceutica NV, priority 2012, dated 2014) are described below.

Broadly, the inhibition is the change of the read-out against control, counted positive when it falls. By IC50 is commonly meant the point on the concentration scale where inhibition reaches its midpoint.

Read-outs that look alike come from different tables or passages of the source.

The target of assay [1] is N-type calcium channel (α1B (Cav2.2), β3 and α2δ subunits) (Homo sapiens, UniProt Q00975). The assay can be described thus: Functional Assay: Antagonism of N-Type Calcium Channel (FDSS calcium mobilization, KCl depolarization). The settings on record: for IC50: HEK cell line, 50 mM KCl depolarization, six-point concentration-response, read-out: FDSS IC50. The class given is cell-based. Put shortly: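 HEK cells stably co-expressing α1B (Cav2.2), β3 and α2δ were loaded with calcium dye, then given compound with fluorescence recorded for 5 min before 50 mM KCl depolarisation and 3 min more reading. IC50 came from six-point curves of maximal fluorescence, normalised to KCl maximum and buffer minimum.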
In general terms: Calcium flux is commonly read through the fluorescence of an indicator in the cells.

The target of another assay is N-type calcium channel (Homo sapiens, UniProt Q00975). Briefly: Automated Electrophysiology Assay (QPatch-HT whole-cell patch clamp; low- and high-frequency stimulation). The class given is cell-based. A general note: In patch-clamp work, channel activity is measured electrically.
[2] abbreviates: high-frequency stimulation (15th pulse), read-out: QPatch at High Frequency % Inhibition.
[3] abbreviates: low frequency, read-out: QPatch at Low Frequency % Inhibition.
The mark [4] stands for this setting: 1 μM, high-frequency stimulation (15th pulse), read-out: QPatch at High Frequency % Inhibition.
The mark [5] stands for this setting: low frequency, 1 μM, read-out: QPatch at Low Frequency % Inhibition.

Chain of N-type calcium channel (α1B (Cav2.2), β3 and α2δ subunits) (Q00975 whole entry): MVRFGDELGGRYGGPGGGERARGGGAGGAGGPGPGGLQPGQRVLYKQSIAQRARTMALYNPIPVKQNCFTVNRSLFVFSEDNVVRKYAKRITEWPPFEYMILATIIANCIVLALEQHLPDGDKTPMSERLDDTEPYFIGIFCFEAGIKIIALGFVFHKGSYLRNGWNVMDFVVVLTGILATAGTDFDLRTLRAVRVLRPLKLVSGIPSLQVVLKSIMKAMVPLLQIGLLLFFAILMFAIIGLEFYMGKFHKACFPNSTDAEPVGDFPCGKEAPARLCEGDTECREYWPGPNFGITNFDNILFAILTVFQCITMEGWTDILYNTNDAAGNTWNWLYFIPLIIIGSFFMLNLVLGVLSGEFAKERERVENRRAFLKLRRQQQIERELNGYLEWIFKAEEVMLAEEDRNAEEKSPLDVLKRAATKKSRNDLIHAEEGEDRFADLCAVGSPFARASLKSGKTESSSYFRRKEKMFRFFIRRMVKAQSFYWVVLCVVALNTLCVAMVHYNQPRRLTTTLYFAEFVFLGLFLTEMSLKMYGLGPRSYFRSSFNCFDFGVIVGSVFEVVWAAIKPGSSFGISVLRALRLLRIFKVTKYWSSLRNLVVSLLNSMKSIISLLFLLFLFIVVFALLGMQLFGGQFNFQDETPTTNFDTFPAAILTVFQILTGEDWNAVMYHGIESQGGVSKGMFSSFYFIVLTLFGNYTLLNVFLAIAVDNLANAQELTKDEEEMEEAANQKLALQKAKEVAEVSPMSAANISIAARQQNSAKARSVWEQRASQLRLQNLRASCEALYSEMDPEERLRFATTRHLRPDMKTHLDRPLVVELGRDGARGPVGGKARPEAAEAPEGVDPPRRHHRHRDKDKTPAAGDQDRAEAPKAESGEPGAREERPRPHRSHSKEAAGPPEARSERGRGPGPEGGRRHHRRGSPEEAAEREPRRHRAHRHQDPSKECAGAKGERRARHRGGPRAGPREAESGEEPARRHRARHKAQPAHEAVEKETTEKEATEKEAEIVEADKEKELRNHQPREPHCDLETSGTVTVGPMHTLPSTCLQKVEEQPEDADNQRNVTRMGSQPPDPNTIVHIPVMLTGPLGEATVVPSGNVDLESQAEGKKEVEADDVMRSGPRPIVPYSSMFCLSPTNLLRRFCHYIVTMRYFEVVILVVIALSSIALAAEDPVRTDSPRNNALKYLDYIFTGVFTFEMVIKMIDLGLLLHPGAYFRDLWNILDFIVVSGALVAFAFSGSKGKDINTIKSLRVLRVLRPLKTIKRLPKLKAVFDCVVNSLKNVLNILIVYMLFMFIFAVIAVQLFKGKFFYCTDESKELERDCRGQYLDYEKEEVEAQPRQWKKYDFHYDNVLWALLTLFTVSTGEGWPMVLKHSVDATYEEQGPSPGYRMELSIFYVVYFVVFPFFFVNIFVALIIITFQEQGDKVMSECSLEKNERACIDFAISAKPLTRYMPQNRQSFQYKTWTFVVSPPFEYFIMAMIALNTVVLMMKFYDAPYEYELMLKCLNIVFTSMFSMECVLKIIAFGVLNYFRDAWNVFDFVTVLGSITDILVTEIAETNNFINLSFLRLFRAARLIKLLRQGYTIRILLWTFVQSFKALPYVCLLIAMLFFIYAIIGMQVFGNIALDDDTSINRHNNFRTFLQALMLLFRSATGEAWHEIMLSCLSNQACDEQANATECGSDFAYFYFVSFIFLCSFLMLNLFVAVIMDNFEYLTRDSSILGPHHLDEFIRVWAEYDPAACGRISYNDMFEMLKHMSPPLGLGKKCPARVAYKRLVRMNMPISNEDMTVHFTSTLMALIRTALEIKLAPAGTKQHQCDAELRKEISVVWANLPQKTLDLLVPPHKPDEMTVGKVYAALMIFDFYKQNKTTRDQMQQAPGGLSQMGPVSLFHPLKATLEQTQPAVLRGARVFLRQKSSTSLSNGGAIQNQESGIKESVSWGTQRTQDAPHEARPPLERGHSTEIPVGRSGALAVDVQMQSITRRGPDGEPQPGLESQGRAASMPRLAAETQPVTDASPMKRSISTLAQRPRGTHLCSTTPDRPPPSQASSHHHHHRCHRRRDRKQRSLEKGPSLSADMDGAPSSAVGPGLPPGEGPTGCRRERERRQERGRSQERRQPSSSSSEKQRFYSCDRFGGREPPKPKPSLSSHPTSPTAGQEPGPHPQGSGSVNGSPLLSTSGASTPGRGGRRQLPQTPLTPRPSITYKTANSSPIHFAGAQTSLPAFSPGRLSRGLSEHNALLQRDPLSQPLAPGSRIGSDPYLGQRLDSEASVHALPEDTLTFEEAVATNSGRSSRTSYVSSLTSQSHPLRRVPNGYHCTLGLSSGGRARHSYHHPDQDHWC
Chain of N-type calcium channel (α1B (Cav2.2), β3 and α2δ subunits) (P54284 whole entry partner): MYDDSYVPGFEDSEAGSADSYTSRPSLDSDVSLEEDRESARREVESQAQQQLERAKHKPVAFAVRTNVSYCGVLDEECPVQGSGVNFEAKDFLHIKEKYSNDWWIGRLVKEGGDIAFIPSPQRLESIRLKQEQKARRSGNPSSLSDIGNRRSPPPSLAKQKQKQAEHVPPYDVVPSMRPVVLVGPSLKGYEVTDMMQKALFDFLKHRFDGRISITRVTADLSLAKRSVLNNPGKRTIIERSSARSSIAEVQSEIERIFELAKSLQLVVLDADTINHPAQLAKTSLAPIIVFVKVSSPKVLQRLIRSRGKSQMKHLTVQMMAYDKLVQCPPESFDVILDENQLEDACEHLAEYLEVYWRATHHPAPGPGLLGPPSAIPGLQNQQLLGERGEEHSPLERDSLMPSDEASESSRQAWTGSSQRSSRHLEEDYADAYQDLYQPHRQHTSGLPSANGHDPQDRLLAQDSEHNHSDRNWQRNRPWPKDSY
Chain of N-type calcium channel (α1B (Cav2.2), β3 and α2δ subunits) (P54289 25-946 partner limits assumed): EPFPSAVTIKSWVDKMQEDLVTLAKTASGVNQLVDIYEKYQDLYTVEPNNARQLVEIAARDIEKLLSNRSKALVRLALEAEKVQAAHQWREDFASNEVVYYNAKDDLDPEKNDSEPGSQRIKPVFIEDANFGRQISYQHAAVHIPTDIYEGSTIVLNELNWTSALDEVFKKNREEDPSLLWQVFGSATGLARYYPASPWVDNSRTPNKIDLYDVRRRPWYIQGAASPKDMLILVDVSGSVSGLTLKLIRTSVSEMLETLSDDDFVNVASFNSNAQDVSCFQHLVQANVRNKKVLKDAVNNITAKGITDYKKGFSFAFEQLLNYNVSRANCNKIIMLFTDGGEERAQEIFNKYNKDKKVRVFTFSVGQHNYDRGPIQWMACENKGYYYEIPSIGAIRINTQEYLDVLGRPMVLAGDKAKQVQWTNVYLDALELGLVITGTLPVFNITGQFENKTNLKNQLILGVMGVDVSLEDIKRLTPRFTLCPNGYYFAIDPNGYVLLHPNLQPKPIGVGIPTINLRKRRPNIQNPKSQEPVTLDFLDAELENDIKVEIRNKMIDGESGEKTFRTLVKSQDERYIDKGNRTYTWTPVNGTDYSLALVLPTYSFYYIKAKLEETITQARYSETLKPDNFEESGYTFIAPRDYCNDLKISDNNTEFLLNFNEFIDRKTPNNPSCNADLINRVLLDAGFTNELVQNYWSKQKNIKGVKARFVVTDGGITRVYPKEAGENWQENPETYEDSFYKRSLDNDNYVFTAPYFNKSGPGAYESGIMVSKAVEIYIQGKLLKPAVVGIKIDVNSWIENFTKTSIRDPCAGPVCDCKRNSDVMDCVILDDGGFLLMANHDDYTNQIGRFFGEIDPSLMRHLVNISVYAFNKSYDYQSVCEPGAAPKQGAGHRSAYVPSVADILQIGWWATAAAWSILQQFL
Chain of N-type calcium channel (α1B (Cav2.2), β3 and α2δ subunits) (P54289 947-1103 partner limits assumed): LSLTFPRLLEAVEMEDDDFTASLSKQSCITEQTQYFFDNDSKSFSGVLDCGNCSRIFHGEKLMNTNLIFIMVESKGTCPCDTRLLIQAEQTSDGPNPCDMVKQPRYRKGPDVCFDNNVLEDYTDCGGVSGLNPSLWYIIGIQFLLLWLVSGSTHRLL
Chain of N-type calcium channel (Q00975 whole entry): as the sequence (Q00975 whole entry) above
Chain of N-type calcium channel (P54284 whole entry partner): as the sequence (P54284 whole entry partner) above
Chain of N-type calcium channel (P54289 25-946 partner limits assumed): as the sequence (P54289 25-946 partner limits assumed) above
Chain of N-type calcium channel (P54289 947-1103 partner limits assumed): as the sequence (P54289 947-1103 partner limits assumed) above

Take `COc1ccccc1-n1nc2c(c1-c1ccc(Cl)cc1)C[C@H](OCC(C)C)C2` [Compound 85, (5S)-3-(4-chlorophenyl)-2-(2-methoxyphenyl)-5-(2-methylpropoxy)-2,4,5,6-tetrahydrocyclopenta[c]pyrazole]: in assay [1] (0.33 μM), the inhibition at 0.33 µM was 94%. For the same molecule, the IC50 in assay [1] is 23 nM. The inhibition at 0.1 µM is 2% at N-type calcium channel (setting [2]) and -5% on N-type calcium channel (setting [3]).

With `COc1ccccc1-n1nc2c(c1-c1ccc(Cl)cc1)C[C@H](OC1CCCCC1)C2` [Compound 88, (5S)-3-(4-chlorophenyl)-5-(cyclohexyloxy)-2-(2-methoxyphenyl)-2,4,5,6-tetrahydrocyclopenta[c]pyrazole], in assay [1] (0.33 μM), the inhibition at 0.33 µM was 83%. Besides, in assay [1], the IC50 is 43 nM. Besides, the inhibition at 0.1 µM amounted to 33% on N-type calcium channel (setting [2]) and 22% at N-type calcium channel (setting [3]).

As for `COc1ccccc1-n1nc2c(c1-c1ccc(Cl)cc1)C[C@H](O[C@H]1C[C@@H]3CC[C@H]1C3)C2` [Compound 89, (5S)-5-[(1S,2S,4R)-bicyclo[2.2.1]hept-2-yloxy]-3-(4-chlorophenyl)-2-(2-methoxyphenyl)-2,4,5,6-tetrahydrocyclopenta[c]pyrazole], in assay [1] (0.33 μM), the inhibition at 0.33 µM worked out at 85%. Also, the IC50 in assay [1] worked out at 49 nM. The values for the inhibition at 0.1 µM on N-type calcium channel (setting [2]) and at N-type calcium channel (setting [3]) were 26% and 6%, respectively.

In the case of `COc1ccccc1-n1nc2c(c1-c1ccc(Cl)cc1)C[C@H](OC1CCCC1)C2` [Compound 90, (5S)-3-(4-chlorophenyl)-5-(cyclopentyloxy)-2-(2-methoxyphenyl)-2,4,5,6-tetrahydrocyclopenta[c]pyrazole], the inhibition at 0.33 µM in assay [1] (0.33 μM) came to 89%. Further, the IC50 in assay [1] came out at 22 nM. Moreover, the inhibition at 0.1 µM on N-type calcium channel (setting [2]) came out at 21%; on N-type calcium channel (setting [3]), 10%.

On to `COc1ccccc1-n1nc2c(c1-c1ccc(C#N)cc1)CC1(C2)OCC(C)(C)CO1` [Compound 91, 4-[2-(2-methoxyphenyl)-5′,5′-dimethyl-2,6-dihydro-4H-spiro[cyclopenta[c]pyrazole-5,2′-[1,3]dioxan]-3-yl]benzonitrile], for which the inhibition at 0.33 µM in assay [1] (0.33 μM) stood at 89%. Also, the IC50 in assay [1] was found to be 19 nM. Besides, the inhibition at 0.01 µM worked out at 20% on N-type calcium channel (setting [2]) and 19% at N-type calcium channel (setting [3]). Moreover, the inhibition at 0.1 µM on N-type calcium channel (setting [2]) was 39%; at N-type calcium channel (setting [3]) it was 28%. The figures for the inhibition at 1 µM at N-type calcium channel (setting [4]) and on N-type calcium channel (setting [5]) were 61% and 40%, respectively.

Take `COc1ccccc1-n1nc2c(c1-c1ccc(N(C)C)cc1)CC1(C2)OCC(C)(C)CO1` [Compound 93, 4-[2-(2-methoxyphenyl)-5′,5′-dimethyl-2,6-dihydro-4H-spiro[cyclopenta[c]pyrazole-5,2′-[1,3]dioxan]-3-yl]-N,N-dimethylaniline]: the inhibition at 0.33 µM in assay [1] (0.33 μM) came to 91%. In addition, the IC50 in assay [1] came out at 12 nM. Also, the inhibition at 0.1 µM on N-type calcium channel (setting [2]) was determined as 30%; on N-type calcium channel (setting [3]), 12%.

With `COc1ccc(-c2c3c(nn2-c2ccccc2OC)CC2(C3)OCC(C)(C)CO2)cn1` [Compound 96, 2-(2-methoxyphenyl)-3-(6-methoxypyridin-3-yl)-5′,5′-dimethyl-2,6-dihydro-4H-spiro[cyclopenta[c]pyrazole-5,2′-[1,3]dioxane]], the inhibition at 0.33 µM in assay [1] (0.33 μM) was 81%. Also, the IC50 in assay [1] was found to be 34 nM. Moreover, the inhibition at 0.1 µM on N-type calcium channel (setting [2]) was 20%; on N-type calcium channel (setting [3]), -1%.

As for `COc1ccccc1-n1nc2c(c1-c1ccc(N(C)C)nc1)CC1(C2)OCC(C)(C)CO1` [Compound 97, 5-[2-(2-methoxyphenyl)-5′,5′-dimethyl-2,6-dihydro-4H-spiro[cyclopenta[c]pyrazole-5,2′-[1,3]dioxan]-3-yl]-N,N-dimethylpyridin-2-amine], the inhibition at 0.33 µM in assay [1] (0.33 μM) was 88%. For the same molecule, in assay [1], the IC50 was 29 nM. In addition, the inhibition at 0.1 µM stood at 33% on N-type calcium channel (setting [2]) and 27% at N-type calcium channel (setting [3]).

As to `COc1ccccc1-n1nc2c(c1-c1ccc(Cl)cc1)CC1(C2)O[C@H](C)[C@@H](C)O1` [Compound 98, (4′R,5′R)-3-(4-chlorophenyl)-2-(2-methoxyphenyl)-4′,5′-dimethyl-2,6-dihydro-4H-spiro[cyclopenta[c]pyrazole-5,2′-[1,3]dioxolane]], the inhibition at 0.33 µM in assay [1] (0.33 μM) is 102%. In assay [1], the half-inhibitory concentration (IC50) was determined as 5.9 nM. For the same molecule, the inhibition at 0.1 µM is 28% at N-type calcium channel (setting [2]) and -6% at N-type calcium channel (setting [3]).

For `COc1ccccc1-n1nc2c(c1-c1ccc(Cl)cc1)CC1(C2)O[C@@H](C)[C@H](C)O1` [Compound 99, (4′S,5′S)-3-(4-chlorophenyl)-2-(2-methoxyphenyl)-4′,5′-dimethyl-2,6-dihydro-4H-spiro[cyclopenta[c]pyrazole-5,2′-[1,3]dioxolane]], the inhibition at 0.33 µM in assay [1] (0.33 μM) stood at 93%. In addition, in assay [1], the IC50 worked out at 13 nM. The inhibition at 0.1 µM was 34% at N-type calcium channel (setting [2]) and -4% on N-type calcium channel (setting [3]).

In the case of `COc1ccccc1-n1nc2c(c1-c1ccc(Cl)cc1)CC1(C2)O[C@H](C)C[C@@H](C)O1` (stereo partly drawn) [Compound 100, (4′R,6′R)-3-(4-chlorophenyl)-2-(2-methoxyphenyl)-4′,6′-dimethyl-2,6-dihydro-4H-spiro[cyclopenta[c]pyrazole-5,2′-[1,3]dioxane]], the inhibition at 0.33 µM in assay [1] (0.33 μM) came out at 101%. Moreover, the IC50 in assay [1] came out at 4.4 nM. The inhibition at 0.01 µM on N-type calcium channel (setting [2]) worked out at 21%; on N-type calcium channel (setting [3]) it was 10%. The inhibition at 0.1 µM was 69% at N-type calcium channel (setting [2]) and 46% at N-type calcium channel (setting [3]). The inhibition at 1 µM on N-type calcium channel (setting [4]) is 83%; at N-type calcium channel (setting [5]), 72%.

As to `COc1ccccc1-n1nc2c(c1-c1ccc(Cl)cc1)CC1(C2)O[C@@H](C)C[C@H](C)O1` (stereo partly drawn) [Compound 101, (4′S,6′S)-3-(4-chlorophenyl)-2-(2-methoxyphenyl)-4′,6′-dimethyl-2,6-dihydro-4H-spiro[cyclopenta[c]pyrazole-5,2′-[1,3]dioxane]], the inhibition at 0.33 µM in assay [1] (0.33 μM) came out at 98%. The IC50 in assay [1] stood at 27 nM. The figures for the inhibition at 0.1 µM at N-type calcium channel (setting [2]) and at N-type calcium channel (setting [3]) were 40% and 3%, respectively.

Regarding `COc1ccccc1-n1nc2c(c1-c1ccc(Cl)cc1)CC1(C2)O[C@@H](C)[C@@H](C)O1` (stereo partly drawn) [Compound 102, (4′R,5′S)-3-(4-chlorophenyl)-2-(2-methoxyphenyl)-4′,5′-dimethyl-2,6-dihydro-4H-spiro[cyclopenta[c]pyrazole-5,2′-[1,3]dioxolane]], the inhibition at 0.33 µM in assay [1] (0.33 μM) is 97%. For the same molecule, the IC50 in assay [1] came out at 7.6 nM. Moreover, the inhibition at 1 µM was 58% at N-type calcium channel (setting [4]) and 42% at N-type calcium channel (setting [5]).

With `COc1ccccc1-n1nc2c(c1-c1ccc(Cl)cc1)CC1(C2)O[C@@H](C)[C@@H](C)O1` (stereo partly drawn) [Compound 103, (4′R,5′S)-3-(4-chlorophenyl)-2-(2-methoxyphenyl)-4′,5′-dimethyl-2,6-dihydro-4H-spiro[cyclopenta[c]pyrazole-5,2′-[1,3]dioxolane]], the “% Inhibition (%) at 0.33 μM” value in assay [1] (0.33 μM) was 101%. For the same molecule, the IC50 in assay [1] came to 4.8 nM. Further, the inhibition at 0.1 µM on N-type calcium channel (setting [2]) amounted to 46%; on N-type calcium channel (setting [3]), 12%. In addition, at N-type calcium channel (1 μM, high-frequency stimulation (15th pulse)), the “QPatch at High Frequency % Inhibition” value is 69%. For the same molecule, at N-type calcium channel (setting [3]), the inhibition at 0.01 µM is -21%. Also, the “QPatch at Low Frequency % Inhibition” value at N-type calcium channel (low frequency, 1 μM) was determined as 36%.

On to `COc1ccccc1-n1nc2c(c1-c1ccc(C#N)cc1)CC(CC(C)C)C2` (centres unmarked) [Compound 105, 4-[2-(2-methoxyphenyl)-5-(2-methylpropyl)-2,4,5,6-tetrahydrocyclopenta[c]pyrazol-3-yl]benzonitrile], for which the inhibition at 0.33 µM in assay [1] (0.33 μM) was 81%. For the same molecule, the IC50 in assay [1] came out at 46 nM. In addition, the results for the inhibition at 0.1 µM at N-type calcium channel (setting [2]) and on N-type calcium channel (setting [3]) were 20% and -1%, respectively. The inhibition at 1 µM worked out at 40% at N-type calcium channel (setting [4]) and 10% on N-type calcium channel (setting [5]).

On to `COc1ccccc1-n1nc2c(c1-c1ccc(N(C)C)cc1)CC1(C2)OC(C)(C)C(C)(C)O1` [Compound 107, 4-[2-(2-methoxyphenyl)-4′,4′,5′,5′-tetramethyl-2,6-dihydro-4H-spiro[cyclopenta[c]pyrazole-5,2′-[1,3]dioxolan]-3-yl]-N,N-dimethylaniline], for which, in assay [1] (0.33 μM), the inhibition at 0.33 µM is 92%. In addition, the IC50 in assay [1] worked out at 3 nM. Further, the values for the inhibition at 0.1 µM on N-type calcium channel (setting [2]) and on N-type calcium channel (setting [3]) were 33% and 34%, respectively.

For `CCOc1ccc(-c2c3c(nn2-c2ccccc2OC)CC2(C3)OC(C)(C)C(C)(C)O2)cn1` [Compound 108, 3-(6-ethoxypyridin-3-yl)-2-(2-methoxyphenyl)-4′,4′,5′,5′-tetramethyl-2,6-dihydro-4H-spiro[cyclopenta[c]pyrazole-5,2′-[1,3]dioxolane]], in assay [1] (0.33 μM), the inhibition at 0.33 µM was 86%. In addition, in assay [1], the IC50 was determined as 10 nM. For the same molecule, the inhibition at 0.1 µM at N-type calcium channel (setting [2]) was determined as 13%; at N-type calcium channel (setting [3]) it was 3%.

Regarding `COc1ccccc1-n1nc2c(c1-c1ccc(C)nc1)CC1(C2)OC(C)(C)C(C)(C)O1` [Compound 109, 2-(2-methoxyphenyl)-4′,4′,5′,5′-tetramethyl-3-(6-methylpyridin-3-yl)-2,6-dihydro-4H-spiro[cyclopenta[c]pyrazole-5,2′-[1,3]dioxolane]], the inhibition at 0.33 µM in assay [1] (0.33 μM) was 84%. Further, the IC50 in assay [1] came out at 19 nM. Moreover, the inhibition at 0.1 µM came out at 9% at N-type calcium channel (setting [2]) and 8% on N-type calcium channel (setting [3]).

For `COc1ccccc1-n1nc2c(c1-c1ccc(N(C)C)nc1)CC1(C2)OC(C)(C)C(C)(C)O1` [Compound 110, 5-[2-(2-methoxyphenyl)-4′,4′,5′,5′-tetramethyl-2,6-dihydro-4H-spiro[cyclopenta[c]pyrazole-5,2′-[1,3]dioxolan]-3-yl]-N,N-dimethylpyridin-2-amine], the inhibition at 0.33 µM in assay [1] (0.33 μM) turned out to be 90%. Further, in assay [1], the IC50 was 2.8 nM. The inhibition at 0.1 µM was 1% on N-type calcium channel (setting [2]) and -9% on N-type calcium channel (setting [3]).
